Here are results for 13 molecules from patent US8163740B2, “6-substituted benzoxazines” (Hoffmann-La Roche Inc., priority 2008, dated 2012).

One may read the Ki as a measure of affinity in units of concentration, obtained from inhibition or displacement.

recombinant human 5-HT5A receptor, sequence (P47898 whole entry): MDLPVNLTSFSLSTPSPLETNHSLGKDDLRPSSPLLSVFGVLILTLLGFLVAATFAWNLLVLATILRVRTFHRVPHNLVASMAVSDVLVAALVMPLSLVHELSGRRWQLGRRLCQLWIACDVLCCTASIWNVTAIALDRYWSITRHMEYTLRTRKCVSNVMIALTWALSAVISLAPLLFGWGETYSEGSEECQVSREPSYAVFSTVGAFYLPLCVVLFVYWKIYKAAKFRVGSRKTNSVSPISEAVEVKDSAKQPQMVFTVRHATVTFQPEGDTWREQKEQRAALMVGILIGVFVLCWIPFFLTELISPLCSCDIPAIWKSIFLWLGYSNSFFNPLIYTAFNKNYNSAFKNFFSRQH

This experiment deals with recombinant human 5-HT5A receptor (Homo sapiens, UniProt P47898). Briefly: [3H]LSD radioligand binding assay. Particulars: [3H]LSD (approximately 1 nM); membranes from HEK-EBNA cells transiently expressing 5-HT5A; Ki by Cheng-Prussoff equation; read-out: Ki. Here is the method:
A [^3H]LSD radioligand binding assay was used to determine the affinity of the compounds for the recombinant human 5-HT5A receptor, in membranes from transiently (cDNA) expressed 5-HT5A receptors in Human Embryonic Kidney-EBNA (HEK-EBNA) cells. Assay buffer consisted of Tris (50 mM) buffer containing 1 mM EGTA, 10 mM MgCl2 (pH 7.4) and 10 μM pargyline. The binding assay was carried out in 96-well-plates in the presence of [^3H]LSD (approximately 1 nM), approximately 2 μg/well of membrane protein, and 0.5 mg of Ysi-poly-1-lysine SPA beads in a final volume of 200 μl of buffer. Non-specific binding was defined using methiothepin 2 μM. Compounds were tested at 10 concentrations. All assays were conducted in duplicate and repeated at least two times. Assay plates were incubated for 120 min at room temperature before centrifugation. Bound ligand was determined using a Packard Topcount scintillation counter. IC50 values were calculated using a non-linear curve fitting program and Ki values calculated using the Cheng-Prussoff equation.
With `COC[C@@H]1CN(CC(=O)Nc2ccc3c(c2)COC(N[C@@H]2CCc4ccccc42)=N3)C[C@@H](COC)N1C` (mixture of isomers) [Example 158, 2-((3SR,5SR)-3,5-Bis-(methoxymethyl)-4-methyl-piperazin-1-yl)-N-[2-((R)-indan-1-ylamino)-4H-benzo[d][1,3]oxazin-6-yl]-acetamide], the Ki was found to be 16.1 nM.

As to `COc1cccc2c1C(NC1=Nc3ccc([N+](=O)[O-])cc3CO1)CO2` (racemic) [Example 5, rac-(4-Methoxy-2,3-dihydro-benzofuran-3-yl)-(6-nitro-4H-benzo[d][1,3]oxazin-2-yl)-amine], the inhibitory constant (Ki) is 368 nM.

Consider `COc1cccc2c1C(NC1=Nc3ccc(N)cc3CO1)CO2` (racemic) [Example 6, rac-N^2-(4-Methoxy-2,3-dihydro-benzofuran-3-yl)-4H-benzo[d][1,3]oxazine-2,6-diamine], for which the inhibitory constant (Ki) came out at 7.83 nM.

Consider `COc1cccc2c1C(NC1=Nc3ccc(NC(=O)CCl)cc3CO1)CO2` (racemic) [Example 8, rac-2-Chloro-N-[2-(4-methoxy-2,3-dihydro-benzofuran-3-ylamino)-4H-benzo[d][1,3]oxazin-6-yl]-acetamide], for which the Ki is 20.7 nM.

Turning to `COc1cccc2c1C(NC1=Nc3ccc(NC(=O)CN4CCN(C)CC4)cc3CO1)CO2` (racemic) [Example 9, rac-N-[2-(4-Methoxy-2,3-dihydro-benzofuran-3-ylamino)-4H-benzo[d][1,3]oxazin-6-yl]-2-(4-methyl-piperazin-1-yl)-acetamide], the Ki worked out at 5.69 nM.

Consider `COc1cccc2c1C(NC1=Nc3ccc(N)cc3CO1)CC2` (racemic) [Example 10, rac-N^2-(7-Methoxy-indan-1-yl)-4H-benzo[d][1,3]oxazine-2,6-diamine], for which the inhibition constant Ki came out at 1.2 nM.

Consider `Nc1ccc2c(c1)COC(NC1CCc3cc(F)ccc31)=N2` (racemic) [Example 11, rac-N^2-(5-Fluoro-indan-1-yl)-4H-benzo[d][1,3]oxazine-2,6-diamine], for which the inhibitory constant (Ki) worked out at 1.26 nM.

Turning to `COc1cccc2c1C(NC1=Nc3ccc(NC(=O)CN4CCN(C(C)C)CC4)cc3CO1)CO2` (racemic) [Example 12, rac-2-(4-Isopropyl-piperazin-1-yl)-N-[2-(4-methoxy-2,3-dihydro-benzofuran-3-ylamino)-4H-benzo[d][1,3]oxazin-6-yl]-acetamide], the Ki worked out at 9.28 nM.

Take `COc1cccc2c1C(NC1=Nc3ccc(NC(=O)CN4CCOCC4)cc3CO1)CO2` (racemic) [Example 13, rac-N-[2-(4-Methoxy-2,3-dihydro-benzofuran-3-ylamino)-4H-benzo[d][1,3]oxazin-6-yl]-2-morpholin-4-yl-acetamide]: the inhibition constant Ki is 40.6 nM.

As for `COc1cccc2c1C(NC1=Nc3ccc(NC(=O)NC4CCN(C(C)C)CC4)cc3CO1)CO2` (racemic) [Example 14, rac-1-(1-Isopropyl-piperidin-4-yl)-3-[2-(4-methoxy-2,3-dihydro-benzofuran-3-ylamino)-4H-benzo[d][1,3]oxazin-6-yl]-urea], the inhibition constant Ki was determined as 4.37 nM.

Turning to `COc1cccc2c1C(NC1=Nc3ccc(NC(=O)N(C)C4CCN(C(C)C)CC4)cc3CO1)CO2` (racemic) [Example 15, rac-1-(1-Isopropyl-piperidin-4-yl)-3-[2-(4-methoxy-2,3-dihydro-benzofuran-3-ylamino)-4H-benzo[d][1,3]oxazin-6-yl]-1-methyl-urea], the inhibitory constant (Ki) stood at 6.08 nM.

Turning to `COc1cccc2c1C(NC1=Nc3ccc(NC(=O)NC(C)C)cc3CO1)CO2` (racemic) [Example 16, rac-1-Isopropyl-3-[2-(4-methoxy-2,3-dihydro-benzofuran-3-ylamino)-4H-benzo[d][1,3]oxazin-6-yl]-urea], the inhibition constant Ki turned out to be 2.93 nM.

Consider `COCC(=O)Nc1ccc2c(c1)COC(NC1COc3cccc(OC)c31)=N2` (racemic) [Example 17, rac-2-Methoxy-N-[2-(4-methoxy-2,3-dihydro-benzofuran-3-ylamino)-4H-benzo[d][1,3]oxazin-6-yl]-acetamide], for which the inhibition constant (Ki) amounted to 26.1 nM.
